The subject of the assay is HBV. The assay is described as follows: HBV replication inhibition assay (BDNA assay) in HepG2.2.15 cells. In kind it is cell-based. The following applies: Hepatitis B virus, HepG2.2.15, HBV replication assay (BDNA assay), HepG2.2.15 cells; read-out: DNA EC50. In short, it runs like this:
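HepG2.2.15 cells with stably integrated HBV were treated with serially diluted compounds at 0.5% DMSO for 6 days, with medium and compound refreshed at day 3. Encapsidated HBV DNA from DNase-treated supernatant was quantified by branched DNA assay. EC50 came from % inhibition versus DMSO, fitted non-linearly.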

The values below come from patent US10987359B2, “Oxadiazepinone derivatives and methods of treating hepatitis B infections” (priority 2016, dated 2021).

Bounds are passed on as bounds.

Usually EC50 stands for the midpoint of the concentration-response curve.

As to `COC(=O)C1Cn2nc3c(c2C(=O)N(C)O1)CN(C(=O)Nc1ccc(F)c(Cl)c1)CC3` (centres unmarked) [Compound 071, methyl 10-[(3-chloro-4-fluoro-phenyl)carbamoyl]-2-methyl-1-oxo-5,8,9,11-tetrahydro-4H-pyrido[2,3]pyrazolo[2,4-d][1,2,5]oxadiazepine-4-carboxylate], the EC50 is above 1000 nM. Under `CN1OC(C(N)=O)Cn2nc3c(c2C1=O)CN(C(=O)Nc1ccc(F)c(Cl)c1)CC3` (centres unmarked) [Compound 072, N10-(3-chloro-4-fluoro-phenyl)-2-methyl-1-oxo-5,8,9,11-tetrahydro-4H-pyrido[2,3]pyrazolo[2,4-d][1,2,5]oxadiazepine-4,10-dicarboxamide] stands 1 to 100 nM. Regarding `CNC(=O)C1Cn2nc3c(c2C(=O)N(C)O1)CN(C(=O)Nc1ccc(F)c(Cl)c1)CC3` (centres unmarked) [Compound 073, N10-(3-chloro-4-fluoro-phenyl)-N4,2-dimethyl-1-oxo-5,8,9,11-tetrahydro-4H-pyrido[2,3]pyrazolo[2,4-d][1,2,5]oxadiazepine-4,10-dicarboxamide], the EC50 lay in the range of 1 to 100 nM. Under `CN(C)C(=O)C1Cn2nc3c(c2C(=O)N(C)O1)CN(C(=O)Nc1ccc(F)c(Cl)c1)CC3` (centres unmarked) [Compound 074, N10-(3-chloro-4-fluoro-phenyl)-N4,N4,2-trimethyl-1-oxo-5,8,9,11-tetrahydro-4H-pyrido[2,3]pyrazolo[2,4-d][1,2,5]oxadiazepine-4,10-dicarboxamide] stands 1 to 100 nM; under `C[C@@H]1Cc2nn3c(c2CN1C(=O)Nc1ccc(F)c(Cl)c1)C(=O)N(C)OCC3` [Compound 075, (9R)—N-(3-chloro-4-fluoro-phenyl)-2,9-dimethyl-1-oxo-5,8,9,11-tetrahydro-4H-pyrido[2,3]pyrazolo[2,4-c][1,2,5]oxadiazepine-10-carboxamide], 1 to 100 nM; under `C[C@@H]1Cc2nn3c(c2CN1C(=O)Nc1ccc(F)c(C(F)(F)F)c1)C(=O)N(C)OCC3` [Compound 076, (R)—N-(4-fluoro-3-(trifluoromethyl)phenyl)-2,9-dimethyl-1-oxo-1,4,5,8,9,11-hexahydropyrido[4′,3′:3,4]pyrazolo[5,1-d][1,2,5]oxadiazepine-10(2H)-carboxamide], 1 to 100 nM. The figure for `C[C@@H]1Cc2nn3c(c2CN1C(=O)Nc1ccc(F)c(Br)c1)C(=O)N(C)OCC3` [Compound 077, (R)—N-(3-bromo-4-fluorophenyl)-2,9-dimethyl-1-oxo-1,4,5,8,9,11-hexahydropyrido[4′,3′:3,4]pyrazolo[5,1-d][1,2,5]oxadiazepine-10(2H)-carboxamide] is 1 to 100 nM; for `C[C@@H]1Cc2nn3c(c2CN1C(=O)Nc1ccnc(Br)c1F)C(=O)N(C)OCC3` [Compound 078, (R)—N-(2-bromo-3-fluoropyridin-4-yl)-2,9-dimethyl-1-oxo-1,4,5,8,9,11-hexahydropyrido[4′,3′:3,4]pyrazolo[5,1-d][1,2,5]oxadiazepine-10(2H)-carboxamide] it is 1 to 100 nM. The figure for `C[C@@H]1Cc2nn3c(c2CN1C(=O)Nc1ccc(F)c(C#N)c1)C(=O)N(C)OCC3` [Compound 079, (R)—N-(3-cyano-4-fluorophenyl)-2,9-dimethyl-1-oxo-1,4,5,8,9,11-hexahydropyrido[4′,3′:3,4]pyrazolo[5,1-d][1,2,5]oxadiazepine-10(2H)-carboxamide] is 1 to 100 nM. As to `Cc1cc(NC(=O)N2Cc3c(nn4c3C(=O)N(C)OCC4)C[C@H]2C)ccc1F` [Compound 080, (R)—N-(4-fluoro-3-methylphenyl)-2,9-dimethyl-1-oxo-1,4,5,8,9,11-hexahydropyrido[4′,3′:3,4]pyrazolo[5,1-d][1,2,5]oxadiazepine-10(2H)-carboxamide], the EC50 lay in the range of 1 to 100 nM.

Turning to `C[C@@H]1Cc2nn3c(c2CN1C(=O)Nc1cc(F)c(F)c(Cl)c1)C(=O)N(C)OCC3` [Compound 081, (R)—N-(3-chloro-4,5-difluorophenyl)-2,9-dimethyl-1-oxo-1,4,5,8,9,11-hexahydropyrido[4′,3′:3,4]pyrazolo[5,1-d][1,2,5]oxadiazepine-10(2H)-carboxamide], the EC50 was in the range of 1 to 100 nM.
